Measurements reported in US11643636B2, “Method of creating human pluripotent stem cell derived brain pericyte-like cells” (Wisconsin Alumni Research Foundation, priority 2018, dated 2023).

Tested on: hPSCs (H9 hESCs, IMR90C4 and CS03n2 iPSCs)
Test: Differentiation of hPSCs to NCSCs (p75-NGFR/HNK1 immunocytochemistry, flow cytometry)
Assay type: cell-based, human
Conditions: CHIR99021 increased to 2 μM in E6-CSF, 15 days
Protocol: We first assessed the capability of E6, a reduced factor medium, to support differentiation of H9 human embryonic stem cells (hESCs) and IMR90C4 and CS03n2 induced pluripotent stem cells (iPSCs) to NCSCs. H9 hESCs were cultured for 15 days in E6 medium supplemented with heparin and pathway modulators previously implicated in hPSC differentiation to NCSCs (48): 1 μM CHIR99021, a GSK3β inhibitor to promote WNT signaling; 10 μM SB431543, an ALK5 antagonist to inhibit Activin/Nodal/TGFβ signaling; and 10 ng/mL FGF2 (E6-CSF).
To examine the effects of BMP inhibition on hPSC differentiation to NCSCs in minimal medium, E6-CSF medium was supplemented with 1 μM dorsomorphin, a BMP type I receptor inhibitor, to generate E6-CSFD.
One day prior to initiating NCSC differentiation, hPSCs maintained in E8 medium were singularized using Accutase and seeded at 9.1×10^4 cells/cm^2 onto Matrigel coated plates with E8+10 μM Y27632. […]
Cells were fixed fifteen minutes at room temperature with either 4% paraformaldehyde (PFA) or 100% ice-cold methanol depending on antibody staining conditions. Cells were rinsed three times in PBS without Ca^2+/Mg^2+ and stored at 4° C. in PBS until ready to stain. […]

**Q.** With `Cc1c[nH]c(-c2cnc(NCCNc3ccc(C#N)cn3)nc2-c2ccc(Cl)cc2Cl)n1` [CHIR99021] as the compound, how does the “induction of p75-NGFR expression” value read?
**A.** did not aid in inducing p75-NGFR expression
